Data taken from patent publication US7189691B2, “Methods and compositions for treating leukemia” (The Administrators of the Tulane Educational Fund, priority 2004, dated 2007).
Entries after “also recorded” stand apart in the source; their conditions may differ.

Columns and labels:
Raji lymphoma cell line = assay: Proliferation test; format: cell-based; settings: data not shown
mBCoR binding to AF9 = target: T1, mBCoR binding to AF9 (Homo sapiens, UniProt P42568); assay: GST pull-down assay, GST-mBCoR(925-1759) and biotinylated AF9; set-up: species or system murine; settings: 25 μg/ml
T1 construct: made in house; host or cells: GST-mBCoR from E. coli; AF9 by coupled in vitro transcription/translation (Promega)
T1 sequence (P42568 211-568): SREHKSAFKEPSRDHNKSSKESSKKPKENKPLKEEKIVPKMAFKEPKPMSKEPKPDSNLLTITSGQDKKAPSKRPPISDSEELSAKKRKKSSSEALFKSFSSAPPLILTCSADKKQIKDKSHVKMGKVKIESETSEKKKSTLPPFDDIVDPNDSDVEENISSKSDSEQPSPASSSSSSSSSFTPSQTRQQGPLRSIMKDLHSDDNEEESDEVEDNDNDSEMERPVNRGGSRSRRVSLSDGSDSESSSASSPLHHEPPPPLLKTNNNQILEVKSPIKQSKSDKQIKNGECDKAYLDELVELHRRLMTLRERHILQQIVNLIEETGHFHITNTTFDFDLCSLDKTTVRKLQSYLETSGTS
Protocol: (§1) To determine if the synthetic peptide could disrupt the AF4-AF9 interaction in vitro, and to determine if the peptide disrupted other binding events with AF9, the following assay was performed. In additional to AF4, the carboxy-terminus of AF9 binds at least two other proteins, the Polycomb protein MPc3 and mBCoR, the mouse homolog of the human BCL-6 corepressor protein (Srinivasan 2003 and Hemenway 2001, both cited above). Using a yeast three hybrid assay similar to that described in Example 1, it was previously shown that mBCoR and FMR2 (an AF4 homolog) can simultaneously bind AF9. […] The sequences of human AF4 and AF9 and murine MPc3 and BCoR can be found in the NCBI database under Accession Nos. P51825, P42568, Q9QXV1, and AAN85318, respectively, incorporated by reference herein.
(§2) Recombinant proteins consisting of glutathione-S-transferase (GST) fused to either (a) amino acids 749–775 of human AF4 SEQ ID NO: 107, (b) amino acids 202–362 of MPc3 SEQ ID NO: 108 or (c) amino acids 925–1759 of mBCoR SEQ ID NO: 109 were isolated from E. coli. These fusion proteins were immobilized on 50 μl glutathione agarose matrix. […]
(§3) After extensive washing with TBST, proteins were resolved by SDS-PAGE and transferred to nitrocellulose. […] Alkaline phosphatase activity was measured by determining the optical density of the samples at 405 nm with a plate spectrophotometer. […]

THP-1 leukemia cell line = assay: MTT viability assay; format: cell-based; settings: 72 h, varying concentrations
Protocol: (§4) All cell lines were maintained in RPMI 1640+10% FCS. 100 μl aliquots of cell suspension (5×10^5 cells/ml) were cultured in flat-bottomed 96 well plates in the presence of different concentrations of peptides. After 72 h incubation at 37° C. in humidified air containing 5% CO2, viable cell number was determined by MTT assay as follows: 10 μl of 3-[4,5-dimethylthiazol-2-yl]-2,5-diphenyl tetrazolium bromide (MTT) (5 mg/ml concentration) (Sigma) was added to each well and incubated further for 6 h. Formazan crystals that are formed during incubation were dissolved in 100 μl of acidified isopropanol. The optical density at 550 nm (which is linearly related to the number of viable cells) was measured using a plate spectrophotometer. Growth characteristics of the leukemia cell lines were also determined for cells by Trypan Blue exclusion.

[1] = tested on: MOLT-4 T-cell leukemia line; assay: MTT viability assay; format: cell-based; settings: 72 h, up to 200 μg/ml
Protocol: as §4

[2] = tested on: MV4-11 leukemia cell line; assay: MTT viability assay; format: cell-based; settings: 72 h, differing concentrations
Protocol: as §4

[3] = tested on: Reh B-precursor leukemia cell line; assay: MTT viability assay; format: cell-based; settings: 72 h
Protocol: as §4

B1 leukemia cell line = assay: MTT viability assay; format: cell-based; settings: 72 h, differing concentrations
Protocol: as §4

MPc3 binding to AF9 = target: T2, MPc3 binding to AF9 (Homo sapiens, UniProt P42568); assay: GST pull-down assay, GST-MPc3(202-362) and biotinylated AF9; set-up: species or system murine; settings: 25 μg/ml
T2 construct: made in house; host or cells: GST-MPc3 from E. coli; AF9 by coupled in vitro transcription/translation (Promega)
T2 sequence (P42568 211-568): T1 sequence (P42568 211-568)
Protocol: as §1, §2, §3

CC[C@H](C)[C@H](NC(=O)[C@H](CCCCN)NC(=O)[C@@H](NC(=O)[C@H](Cc1c[nH]c2ccccc12)NC(=O)[C@H](CC(C)C)NC(=O)[C@H](CCCCN)NC(=O)[C@H](CCCCN)NC(=O)[C@H](Cc1c[nH]c2ccccc12)NC(=O)[C@H](CCCCN)NC(=O)[C@H](CCSC)NC(=O)[C@H](CCCNC(=N)N)NC(=O)[C@H](CCCNC(=N)N)NC(=O)[C@H](CC(N)=O)NC(=O)[C@H](CCC(N)=O)NC(=O)[C@H](Cc1ccccc1)NC(=O)[C@H](Cc1c[nH]c2ccccc12)NC(=O)[C@H](CCCCN)NC(=O)[C@@H](NC(=O)[C@H](CCC(N)=O)NC(=O)[C@@H](N)CCCNC(=N)N)[C@@H](C)CC)C(C)C)C(=O)N[C@@H](CC(=O)O)C(=O)N[C@@H](CC(C)C)C(=O)N[C@@H](CC(=O)O)C(=O)N[C@@H](CC(C)C)C(=O)N[C@@H](CC(C)C)C(=O)N[C@@H](CO)C(=O)N[C@@H](CCCNC(=N)N)C(=O)N[C@H](C(=O)N1CCC[C@H]1C(=O)O)C(C)C [PFWT]
proliferation (Raji lymphoma cell line): not affect the proliferation | displacement of mBCoR from AF9 (mBCoR binding to AF9): not displaced | cell viability (THP-1 leukemia cell line): inhibited to a much lesser extent; also recorded: not significantly inhibited | cell viability [1]: not affected | cell viability [2]: diminished; also recorded: inhibits | cell viability [3]: inhibited | cell viability (B1 leukemia cell line): diminished; also recorded: inhibits | displacement of MPc3 from AF9 (MPc3 binding to AF9): not displaced
